Where two headings read alike, the source gives them in different places.
Experiments:
S. aureus FDA-209-p = assay: Antimicrobial activity test: MIC by the agar plate dilution method, S. aureus FDA-209-p; type: cell-based, Staphylococcus aureus; conditions: inoculum 1×10^6 cells/ml
Method in brief: (§1)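 Read-out is the minimal inhibitory concentration, determined in vitro by agar plate dilution with test inocula of 1×10^6 cells/ml.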

E. coli NIHJ = assay: Antimicrobial activity test: MIC by the agar plate dilution method, E. coli NIHJ; type: cell-based; conditions: inoculum 1×10^6 cells/ml
Protocol: In order to investigate the in vitro activity of the under-mentioned compounds against various bacteria, the minimal inhibitory concentration (MIC) values were determined by the agar plate dilution method [see Chemotherapy, 22, 1126-1128 (1974)].
Each test inoculum was adjusted to 1×10^6 cells/ml (O.D., 600 mμ: 0.07-0.16).

E. coli No. 29 = assay: Antimicrobial activity test: MIC by the agar plate dilution method, E. coli No. 29; type: cell-based
Method in brief: as §1

K. pneumoniae NCTC-9632 = assay: Antimicrobial activity test: MIC by the agar plate dilution method, K. pneumoniae NCTC-9632; type: cell-based; conditions: inoculum 1×10^6 cells/ml
Method in brief: as §1

P. mirabilis 1287 = assay: Antimicrobial activity test: MIC by the agar plate dilution method, P. mirabilis 1287; type: cell-based; conditions: P. mirabilis 1287; inoculum 1×10^6 cells/ml
Method in brief: as §1

M. morganii ATCC-25830 = assay: Antimicrobial activity test: MIC by the agar plate dilution method, M. morganii ATCC-25830; type: cell-based; conditions: inoculum 1×10^6 cells/ml
Method in brief: as §1

S. marcescens IFO-12648 = assay: Antimicrobial activity test: MIC by the agar plate dilution method, S. marcescens IFO-12648; type: cell-based
Method in brief: as §1

P. aeruginosa NCTC-10490 = assay: Antimicrobial activity test: MIC by the agar plate dilution method, P. aeruginosa NCTC-10490; type: cell-based; conditions: inoculum 1×10^6 cells/ml
Method in brief: as §1

[1] = E. coli No. 29, inoculum 1×10^6 cells/ml
[2] = S. marcescens IFO-12648, inoculum 1×10^6 cells/ml

7-[2-(2-Aminothiazol-4-yl)-2-cyclopropylmethyloxyiminoacetamido]-3-[(1,3,4-thiadiazol-2-yl)thiomethyl]-Δ^3 -O-2-isocephem-4-carboxylic acid trifluoroacetate (syn-isomer) [No. 10]
MIC (S. aureus FDA-209-p): 0.05 µg/mL | MIC (E. coli NIHJ): ≤ 0.025 µg/mL | MIC (E. coli No. 29; [1]): 0.05 µg/mL | MIC (K. pneumoniae NCTC-9632): 0.05 µg/mL | MIC (P. mirabilis 1287): ≤ 0.025 µg/mL | MIC (M. morganii ATCC-25830): ≤ 0.025 µg/mL | MIC (S. marcescens IFO-12648; [2]): 0.05 µg/mL | MIC (P. aeruginosa NCTC-10490): 3.13 µg/mL

7-[2-(2-Aminothiazol-4-yl)-2-cyanomethyloxyiminoacetamido]-3-[(1,2,3-thiadiazol-5-yl)thiomethyl]-Δ^3 -O-2-isocephem-4-carboxylic acid trifluoroacetate (syn-isomer) [Example 55]
MIC (S. aureus FDA-209-p): 0.2 µg/mL | MIC (E. coli NIHJ): ≤ 0.025 µg/mL | MIC (E. coli No. 29; [1]): ≤ 0.025 µg/mL | MIC (K. pneumoniae NCTC-9632): ≤ 0.025 µg/mL | MIC (P. mirabilis 1287): ≤ 0.025 µg/mL | MIC (M. morganii ATCC-25830): ≤ 0.025 µg/mL | MIC (S. marcescens IFO-12648; [2]): 0.1 µg/mL | MIC (P. aeruginosa NCTC-10490): 1.56 µg/mL

7-[2-(2-Aminothiazol-4-yl)-2-methoxyiminoacetamido]-3-[(1,4,5,6-tetrahydro-4-methyl-5,6-dioxo-1,2,4-triazin-3-yl)thiomethyl]-Δ^3 -O-2-isocephem-4-carboxylic acid (syn-isomer) [No. 4]
MIC (S. aureus FDA-209-p): 0.78 µg/mL | MIC (E. coli NIHJ): ≤ 0.025 µg/mL | MIC (E. coli No. 29; [1]): ≤ 0.025 µg/mL | MIC (K. pneumoniae NCTC-9632): ≤ 0.025 µg/mL | MIC (P. mirabilis 1287): ≤ 0.025 µg/mL | MIC (M. morganii ATCC-25830): ≤ 0.025 µg/mL | MIC (S. marcescens IFO-12648; [2]): 0.2 µg/mL | MIC (P. aeruginosa NCTC-10490): 50 µg/mL

Benzyl 7-[2-(2-chloroacetamidothiazol-4-yl)-2-ethoxyiminoacetamido]-3-[(1,3,4-thiadiazol-2-yl)thiomethyl]-Δ^3 -O-2-isocephem-4-carboxylate (syn-isomer) [Example 27]
MIC (S. aureus FDA-209-p): 0.1 µg/mL | MIC (E. coli NIHJ): 0.10 µg/mL | MIC (E. coli No. 29; [1]): 0.1 µg/mL | MIC (K. pneumoniae NCTC-9632): 0.2 µg/mL | MIC (P. mirabilis 1287): 0.1 µg/mL | MIC (M. morganii ATCC-25830): 0.1 µg/mL | MIC (S. marcescens IFO-12648; [2]): 0.2 µg/mL | MIC (P. aeruginosa NCTC-10490): 0.2 µg/mL

7-[2-(2-Aminothiazol-4-yl)-2-ethoxyiminoacetamido]-3-[(1,3,4-thiadiazol-2-yl)thiomethyl]-Δ^3 -O-2-isocephem-4-carboxylic acid (syn-isomer) [Example 29]
MIC (S. aureus FDA-209-p): 0.05 µg/mL | MIC (E. coli NIHJ): ≤ 0.025 µg/mL | MIC (E. coli No. 29; [1]): ≤ 0.025 µg/mL | MIC (K. pneumoniae NCTC-9632): 0.05 µg/mL | MIC (P. mirabilis 1287): ≤ 0.025 µg/mL | MIC (M. morganii ATCC-25830): ≤ 0.025 µg/mL | MIC (S. marcescens IFO-12648; [2]): 0.2 µg/mL | MIC (P. aeruginosa NCTC-10490): 6.25 µg/mL

7-[2-(2-Aminothiazol-4-yl)-2-methoxyiminoacetamido]-3-[(carbamoyloxy)methyl]-Δ^3 -O-2-isocephem-4-carboxylic acid (syn-isomer) [No. 1]
MIC (S. aureus FDA-209-p): 0.78 µg/mL | MIC (E. coli NIHJ): 0.2 µg/mL | MIC (E. coli No. 29): 0.39 µg/mL | MIC (K. pneumoniae NCTC-9632): 0.39 µg/mL | MIC (P. mirabilis 1287): 0.1 µg/mL | MIC (M. morganii ATCC-25830): 0.1 µg/mL | MIC (S. marcescens IFO-12648): 0.78 µg/mL | MIC (P. aeruginosa NCTC-10490): 1.56 µg/mL
